Reference: patent US9320272B2, “Microbial composition” (Rohm and Haas Company, priority 2011, dated 2016)
Where “and” joins values, the source holds several entries; their conditions need not be identical. Equal values may be shown once.

Experiments:
[1] = tested on: Escherichia coli (E. coli - ATCC #10536); assay: Synergy test: high resolution MBC microtiter plate assay in phosphate buffer containing 35% dipropylene glycol, 15 seconds contact; type: cell-based; details: for QA: concentration of first component (A) acting alone which produced an end point (MBC of Compound A); Qa with Qb = 0 / QB: concentration of second component (B) acting alone which produced an end point (MBC of Compound B); Qb with Qa = 0: E. coli 10536, complete kill in 15 seconds, phosphate buffer with 35% DPG; for SI (Synergy Index = Qa/QA + Qb/QB): E. coli 10536, less than one = synergy, one = additivity, greater than one = antagonism
Description: One measure of synergy is the industrially accepted method described by Kull, F. C.; Eisman, P. C.; Sylwestrowicz, M. D, and Mayer, R. L., in Applied Microbiology 9:538-541 (1961), using the ratio determined by the formula: Qa/QA+Qb/QB=Synergy Index (“SI”) wherein; QA=concentration of compound A (first component) in percent, acting alone, which produced an end point (MBC of Compound A), Qa=concentration of compound A in percent, in the mixture, which produced an end point. QB=concentration of compound B (second component) in percent, acting alone, which produced an end point (MBC of Compound B). Qb=concentration of compound B in percent, in the mixture, which produced an end point.
When the sum of Qa/QA and Qb/QB is greater than one, antagonism is indicated. […] The lower the SI, the greater is the synergy shown by that particular mixture. The minimum biocidal concentration (MBC) of a microbicide is the lowest concentration tested under a specific set of conditions that provides complete kill of the tested microorganisms.
Synergy tests were conducted using standard microliter plate assays with phosphate buffer containing 35% dipropylene glycol (DPG). In this method, a wide range of combinations of chemicals was tested by conducting high resolution. MBC assays of Component (A) in the presence of various concentrations of Component (B). High resolution MBCs were determined by adding varying amounts of microbicide to one column of a microliter plate and doing subsequent […] dilutions using an automated liquid handling system to obtain a series of closely spaced endpoints. The MBC plate was inoculated one column at a time with the test microorganism. An aliquot of the inoculated well was transferred at 15 seconds to a plate containing a neutralizing agent (EVE Neutralizing Broth), mixed and held for 5 minutes before being transferred to a growth plate containing trypticase soy broth (TSB). The TSB plate was incubated at 37° C. and read for the presence/absence of growth at 24 hours. The lowest level tested that provided complete kill (as evidenced by no growth in the microtitre plate) of the test organisms in 15 seconds is the minimum biocidal concentration (MBC).
The synergy of the combinations of the present invention was determined against a bacterium, Escherichia coli (E. coli—ATCC #10536), at a concentration of approximately 1×10^8 bacteria per mL. This microorganism is representative of natural contaminants in many consumer and industrial applications.

[2] = tested on: Escherichia coli (E. coli - ATCC #10536); assay: Automated assessment of efficacy in surfactant base (2.85% sodium cocoyl glycinate + 1.85% sodium lauroamphoacetate, pH 10), 15 seconds exposure; type: cell-based; details: for MBC (% w/v): in 2.85% sodium cocoyl glycinate + 1.85% sodium lauroamphoacetate solution at pH 10, E. coli, 15 seconds exposure; for No. of replicates showing growth (out of 4) / Δ OD 450 nm = OD450 (time zero) − OD450 (time = 16 hours), Mean / Δ OD 590 nm OD590 (time = 16 hours) − OD590 (time zero), Mean: model surfactant solution pH 10, 15 s exposure; for Δ OD 450 nm = OD450 (time zero) − OD450 (time = 16 hours), Mean / Δ OD 590 nm OD590 (time = 16 hours) − OD590 (time zero), Mean: 4 replicates
Method: In these examples, the efficacy of combinations of actives were tested in a surfactant cleansing formulation comprising 2.85% sodium cocoyl glycinate and 1.85% sodium lauroamphoacetate.
This corresponds to a 50% in use dilution with water of a neat formulation containing 5.7% cocoyl glycinate and 3.7% sodium lauroamphoacetate during hand washing.
Solutions were prepared such that the concentrations of the surfactant components and test actives were 1.1× the final desired concentration in order to allow for dilution with the bacterial inoculum in the test. The solutions were manually adjusted to pH 10.0 by dropwise addition of sodium hydroxide solution, as measured with a pH meter at ambient temperature.
The efficacy of the combinations of the present invention was determined against Escherichia coli (E. coli—ATCC #10536), at a concentration of approximately 1×10^8 bacteria per mL.
Tests were conducted using standard microliter plate assays using an automated liquid handling system. 270 μl of the surfactant test solution was pipetted into each well of the microtitre plate and 30 μl of the bacterial suspension was then added. After exactly 15 seconds of bacterial exposure, a 30 μl volume of bacterial cells was withdrawn and transferred to 270 μl of D/E quench solution. After 5 minutes in the D/E quench, the optical density (OD) was measured for each plate in turn at two specific wavelengths (450 nm and 590 nm). These provide a dual check of antimicrobial activity, as the OD450 reading is specific for the yellow colour of D/E quench when bacterial growth is observed, whereas OD590 is specific for the initial purple colour of the D/E quench which is retained if no bacterial growth is observed. After the time zero OD measurements, plates were then incubated at 37° C. overnight (16 hours) before repeating the OD measurements. Delta CD values were calculated by subtracting […] the initial value at time zero. Bacterial growth is observed as an increase in OD450 and a decrease in ΔOD590. To identify antibacterially efficacious systems (those preventing appreciable bacterial growth after incubation), the following threshold changes in OD readings have been adopted: if (1), OD450 increases by less than 0.2 absorbance unit on incubation and (2), OD590 decreases by less than 0.35 unit on incubation. Conversely, where OD450 increases by more than 0.2 AU and OD590 decreases by more than 0.35 unit after incubation, corresponding to a colour shift from purple to yellow, the test system allows bacterial growth and is not deemed efficacious. Four replicate measurements in the same plate have been made for each test system. The number of replicate wells showing either bacterial growth or no growth is also readily assessed by eye by following the colour change.
Dose responses for individual components and binary mixtures of actives at a fixed concentration ratio were generated by sequential dilution of liquors with further surfactant solution to obtain a series of endpoints.
In some selected cases, the combinations were also tested at the weight ratio 1.1.

SMILES | QA: concentration of first component (A) acting alone which produced an end point (MBC of Compound A); Qa with Qb = 0 [1] | SI (Synergy Index = Qa/QA + Qb/QB) [1] | MBC (% w/v) [2] [% w/v] | No. of replicates showing growth (out of 4) ([2]; single active at […] w/v) | Δ OD 590 nm OD590 (time = 16 hours) − OD590 (time zero), Mean ([2]; single active at […] w/v) | Δ OD 450 nm = OD450 (time zero) − OD450 (time = 16 hours), Mean ([2]; single active at 0.2% w/v) | Δ OD 590 nm OD590 (time = 16 hours) − OD590 (time zero), Mean ([2]; single active at 0.2% w/v) | also measured
Oc1ccc(C2CCCC2)cc1 [4-cyclopentylphenol] | 0.2 weight % | 1.00 | >0.2 |  |  |  |  | 
Oc1ccc2c(c1)CCCC2 [5,6,7,8-tetrahydronaphthalen-2-ol] | 0.6 weight % and 0.3 weight % and 0.5 weight % | 1.00 | >0.2 | 4 | 0.30 |  |  | Δ OD 450 nm = OD450 (time zero) − OD450 (time = 16 hours), Mean ([2]; single active at […] w/v): −1.59
C=CC(C)(O)CCC=C(C)C (racemic) [3,7-dimethylocta-1,6-dien-3-ol] |  | 1.0 | >0.5 |  |  | −0.53 | 0.60 | QB: concentration of second component (B) acting alone which produced an end point (MBC of Compound B); Qb with Qa = 0 [1]: 0.5 weight %; Δ OD 450 nm = OD450 (time zero) − OD450 (time = 16 hours), Mean ([2]; single active at 0.5% w/v): −0.30; Δ OD 590 nm OD590 (time = 16 hours) − OD590 (time zero), Mean ([2]; single active at 0.5% w/v): 0.50
CC(C)=CCC/C(C)=C\CO [cis-3,7-dimethyl-2,6-octadien-1-ol] |  |  | >0.5 | 4 | 0.61 | −0.53 | 0.60 | QB: concentration of second component (B) acting alone which produced an end point (MBC of Compound B); Qb with Qa = 0 [1]: 0.5 weight % and 0.25 weight %; Δ OD 450 nm = OD450 (time zero) − OD450 (time = 16 hours), Mean ([2]; single active at 0.5% w/v): −0.14; Δ OD 590 nm OD590 (time = 16 hours) − OD590 (time zero), Mean ([2]; single active at 0.5% w/v): 0.40
CC(C)=CCC/C(C)=C/CO [(E)-3,7-dimethylocta-2,6-dien-1-ol] |  |  | >0.5 | 4 |  |  |  | QB: concentration of second component (B) acting alone which produced an end point (MBC of Compound B); Qb with Qa = 0 [1]: 0.3 weight % and 0.2 weight %; No. of replicates showing growth (out of 4) ([2]; single active at 0.3% w/v): 4; Δ OD 450 nm = OD450 (time zero) − OD450 (time = 16 hours), Mean ([2]; single active at 0.3% w/v): −0.51; Δ OD 590 nm OD590 (time = 16 hours) − OD590 (time zero), Mean ([2]; single active at 0.3% w/v): 0.59; No. of replicates showing growth (out of 4) ([2]; single active at 0.5% w/v): 4; Δ OD 450 nm = OD450 (time zero) − OD450 (time = 16 hours), Mean ([2]; single active at 0.5% w/v): −0.45; Δ OD 590 nm OD590 (time = 16 hours) − OD590 (time zero), Mean ([2]; single active at 0.5% w/v): 0.62
Cc1cc(O)c(C(C)C)cc1Cl [4-chloro-2-isopropyl-5-methylphenol, reference compound] |  |  | >0.2 |  |  |  |  | 
Oc1ccc(Cc2ccccc2)cc1 [4-hydroxydiphenylmethane] | 0.6 weight % and 0.5 weight % | 1.00 | >0.2 | 4 | 0.54 | −0.52 | 0.61 | No. of replicates showing growth (out of 4) ([2]; single active at 0.1% w/v): 4; Δ OD 450 nm = OD450 (time zero) − OD450 (time = 16 hours), Mean ([2]; single active at 0.1% w/v): −0.58; Δ OD 590 nm OD590 (time = 16 hours) − OD590 (time zero), Mean ([2]; single active at 0.1% w/v): 0.52; No. of replicates showing growth (out of 4) ([2]; single active at 0.2% w/v): 4; Δ OD 450 nm = OD450 (time zero) − OD450 (time = 16 hours), Mean ([2]; single active at […] w/v): −0.55
Oc1ccccc1Cc1ccccc1 [2-hydroxydiphenylmethane] | 0.8 weight % and 1.0 weight % and 0.6 weight % | 1.00 | >0.2 | 4 | 0.64 | −0.51 | 0.63 | No. of replicates showing growth (out of 4) ([2]; single active at 0.1% w/v): 4; Δ OD 450 nm = OD450 (time zero) − OD450 (time = 16 hours), Mean ([2]; single active at 0.1% w/v): −0.51; Δ OD 590 nm OD590 (time = 16 hours) − OD590 (time zero), Mean ([2]; single active at 0.1% w/v): 0.62; No. of replicates showing growth (out of 4) ([2]; single active at 0.2% w/v): 4; Δ OD 450 nm = OD450 (time zero) − OD450 (time = 16 hours), Mean ([2]; single active at […] w/v): −0.49
Cc1ccc(C(C)C)c(O)c1O [3-isopropyl-6-methylbenzene-1,2-diol] | 0.8 weight % and 1.0 weight % | 1.00 |  |  |  |  |  | 
Oc1ccccc1C1CCCC1 [2-cyclopentylphenol] | 0.2 weight % and 0.6 weight % and 0.3 weight % | 1.00 | >0.2 |  |  |  |  | 
CC(C)(C)c1ccc(O)c(O)c1 [4-tert-butylbenzene-1,2-diol] | 0.8 weight % and 1.0 weight % | 1.00 |  |  |  |  |  | 
Cc1cc(O)cc(C)c1Cl [4-chloro-3,5-dimethylphenol] | 0.6 weight % and 0.3 weight % | 1.00 | >0.2 |  |  |  |  | 
Oc1cccc2c1CCCC2 [5,6,7,8-tetrahydronaphthalen-1-ol] | 0.6 weight % and 0.5 weight % | 1.00 | >0.2 |  |  |  |  | 
